These results are taken from patent US8338429B2, “2-acylaminothiazole derivative or salt thereof” (Astellas Pharma, Inc., priority 2002, dated 2012).

Test [1] concerns human c-mpl-Ba/F3 cells. In words: Human c-mpl-Ba/F3 cell proliferation test. In kind it is cell-based. As to conditions: for pot.: concentration promoting cell proliferation to 30% of maximum cell proliferation activity value of Example 9 (of rhTPO for rhTPO), 24 hours culture; for Efficacy: maximum cell proliferation activity, maximum of Example 9 (of rhTPO for rhTPO) set to 100%. As to the method:
In a 96 well microplate, 2×10^5 cells/ml of human c-mpl-Ba/F3 cells were cultured at 37° C. for 24 hours with 10% fetal bovine serum containing a RPMI1640 medium (100 μl/well) to which varied concentrations of tested compounds were respectively added. After the culturing, 10 μl/well of WST-1/1-methoxy PMS (cell counting kit, Dojindo) were added. Immediately after the adding and after 2 hours, absorbance of A450/A650 was measured with a microplate reader (Model 3350:Bio-Rad), and the absorbance increase after 2 hours was regarded as proliferation activity of each tested compound.
pot.: Concentration of tested compound for promoting cell proliferation of the compound of Example 9 (compound of Example 9 and rhTPO in rhTPO) to 30% of maximum cell proliferation activity value.
Efficacy: Maximum cell proliferation activity value of tested compound when the maximum cell proliferation activity value of the compound of Example 9 (compound of Example 9 and rhTPO in rhTPO) is set to 100%.

The test system of test [2] is human c-mpl-Ba/F3 cells. As to the kind of experiment: Oral administration test for mice (c-mpl-Ba/F3 proliferation activity of plasma). In kind it is in vivo. The conditions noted are these: male ICR mice, final plasma concentration 10%, maximum of each tested compound = 100%. As to the method:
To male ICR mice, a tested compound dissolved or suspended in 0.5% methylcellulose aqueous solution was orally administrated in an amount of 100 mg/kg or 10 mg/kg. […] Plasma obtained by centrifugation at 12,000 rpm for 3 minutes was warmed up at 56° C. for 30 minutes, and added to the human c-mpl.Ba/F3 cell proliferation system described in (i) such that the final plasma concentration became 10%, and then cell proliferation activity was measured. The cell proliferation activity (%) of each plasma batch, when maximum cell proliferation activity of each tested compound was set to 100%, was calculated.

For another test, the system named is Human CD34+ cells. As to the kind of experiment: Test for measuring effects of promoting the formation of megakaryocytic colonies. In kind it is cell-based. The conditions noted are these: megakaryocytic colonies per well, 10-14 days. As to the method:
Human CD34^+ cells were cultured at 37° C. for 10-14 days in the presence of tested materials in a 2 well chamber slide, using MegaCult™-C (Stem Cell Technologies). In accordance with the attached instructions, dehydration, fixing, and staining with antihuman glycoprotein IIb/IIIa antibody were carried out. A group of 3 or more stained megakaryocytes was regarded as 1 colony, and the number of colonies per well was measured with a microscope. EC30 values of each tested compound were calculated from a capacity curve.

[3] abbreviates: plasma 2 hours after 100 mg/kg p.o.
[4] abbreviates: plasma 2 hours after 10 mg/kg p.o.

Counter-ions that a name gives are not always drawn.

For `O=C1NC(=S)S/C1=C\c1ccc(C(=O)Nc2nc(-c3ccc(Cl)c(Cl)c3)cs2)cc1` [Control 1, reference compound], in the test on human c-mpl-Ba/F3 cells [1], the pot. was determined as 4.4 nM and the Efficacy was found to be 101%. The compound also displayed a Cell proliferation activity in the test on human c-mpl-Ba/F3 cells [2] (setting [3]) below 10%.
As to `O=C(O)/C(Cl)=C/c1ccc(C(=O)Nc2nc(-c3ccc(Cl)c(Cl)c3)cs2)cc1` [Control 2, reference compound], in the test with human c-mpl-Ba/F3 cells [1], the pot. worked out at 2.1 nM and the Efficacy is on record as 96%. Also, in the test with human c-mpl-Ba/F3 cells [2] (setting [3]), the Cell proliferation activity is below 10%.
Regarding `Cc1sc(NC(=O)c2ccc(/C=C(\Cl)C(=O)O)cc2)nc1-c1cccc(C(F)(F)F)c1` [Control 3, reference compound], in the test on human c-mpl-Ba/F3 cells [1], the pot. was 6.9 nM and the Efficacy is given as 96%. The Cell proliferation activity in the test on human c-mpl-Ba/F3 cells [2] (setting [3]) is below 10%.
For `O=C(Nc1nc(-c2cc(Cl)cs2)c(N2CCN(C3CCCCC3)CC2)s1)c1ccc(OCCO)c(Cl)c1` [Example 9, 3-chloro-N-[4-(4-chlorothiophen-2-yl)-5-(4-cyclohexylpiperazin-1-yl)thiazol-2-yl]-4-(2-hydroxyethoxy)benzamide hydrochloride], in the test with human c-mpl-Ba/F3 cells [1], the pot. is 10 nM and the Efficacy came out at 87%. The EC30 (usually the concentration at which the effect reaches the 30% level) in the test with Human CD34+ cells amounted to 12 nM.
On to `Cl.O=C(Nc1nc(-c2cc(Cl)cs2)c(N2CCN(C3CCCCC3)CC2)s1)c1cnc(N2CCC(C(=O)O)CC2)c(Cl)c1` [Example 16, 1-(3-chloro-5-{[4-(4-chlorothiophen-2-yl)-5-(4-cyclohexylpiperzain-1-yl)thiazol-2-yl]carbamoyl}pyridin-2-yl)piperidine-4-carboxylic acid hydrochloride], for which, in the test on human c-mpl-Ba/F3 cells [1], the pot. worked out at 2.4 nM and the Efficacy is recorded as 93%. Also, the Cell proliferation activity in the test with human c-mpl-Ba/F3 cells [2] (setting [4]) is listed as above 80%.
Regarding `CCCC1CCN(c2sc(NC(=O)c3ccnc(OC)c3)nc2-c2cc(Cl)cs2)CC1` [Example 66], in the test with human c-mpl-Ba/F3 cells [1], the pot. amounted to 14 nM and the Efficacy is listed as 99%. Also, in the test with Human CD34+ cells, the EC30 amounted to 47 nM. Also, the Cell proliferation activity with human c-mpl-Ba/F3 cells [2] (setting [4]) stood at 61%.
In the case of `CCCN1CCN(c2sc(NC(=O)c3ccc(OCCO)c(Cl)c3)nc2-c2cc(Cl)cs2)CC1` [Example 103, 3-chloro-N-[4-(4-chlorothiophen-2-yl)-5-(4-propylpiperazin-1-yl)thiazol-2-yl]-4-(2-hydroxyethoxy)benzamide], in the test on human c-mpl-Ba/F3 cells [1], the pot. worked out at 18 nM and the Efficacy is reported as 97%.
Take `O=C(Nc1nc(-c2cc(Cl)cs2)c(N2CCN(C3CCCCC3)CC2)s1)c1ccc2cnccc2c1` [Example 214, N-[4-(4-chlorothiophen-2-5-yl)-5-(4-cyclohexylpiperazin-1-yl)thiazol-2-yl]isoquinoline-6-carboxamide]: in the test with human c-mpl-Ba/F3 cells [1], the pot. amounted to 15 nM and the Efficacy was determined as 106%. The compound also showed a Cell proliferation activity in the test on human c-mpl-Ba/F3 cells [2] (setting [4]) above 80%.
Take `O=C(Nc1nc(-c2cc(Cl)cs2)c(N2CCN(C3CCCCC3)CC2)s1)c1cnc(OCCCO)c(Cl)c1` [Example 250, 5-chloro-N-[4-(4-chlorothiophen-2-yl)-5-(4-cyclohexylpiperazin-1-yl)thiazol-2-yl]-6-(3-hydroxypropoxy)nicotinamide]: in the test on human c-mpl-Ba/F3 cells [1], the pot. turned out to be 6.7 nM and the Efficacy was 87%. In the test with Human CD34+ cells, this compound gave a concentration for an effect of 30% (EC30) of 26 nM. In the test with human c-mpl-Ba/F3 cells [2] (setting [4]), this compound showed a Cell proliferation activity above 80%.
In the test on human c-mpl-Ba/F3 cells [1], “rhTPO: thrombopoietin (TPO), a c-Mpl ligand playing an important role in differentiation into megakaryocytes” showed a pot. of 0.012 nM and an Efficacy of 100%.
